Reference: patent publication US20090253692A1, “CRYSTALLINE FORM OF N-[[4-FLUORO-2-(5-METHYL-1H-1,2,4-TRIAZOL-1-YL)PHENYL]METHYL]-4,6,7,9-TETRAHYDRO-3-HYDROXY-9,9-DIMETHYL-4-OXO-PYRIMIDO[2,1-C][1,4]OXAZINE-2-CARBOXAMIDE, SODIUM SALT MONOHYDRATE” (Bristol-Myers Squibb Company, priority 2008, published 2009)
“Also recorded” adds a separate entry of the source. Read-outs that look alike come from different tables or passages of the source.

Key:
[1] = Dust hazard analysis: ignition sensitivity of dust cloud; type: physicochemical; details: for Susceptibility to ignition as a dust cloud: result in words
Text: (§1) “μm” means micrometer. “gm” means gram. “cc” means cubic centimeter. “gm/cc” means gram per cubic centimeter. “Kst” is the deflagration index of a dust expressed in bar-meter per second. “bar-m/s” means bar meter per sec. “bar/s” means bar per second. “mJ” means millijoules. “St” is the geneal classification designation for explosible dusts: “St-2” is classified as a strong explosion designation and has Kst>200 bar-m/sec; “St-1” is not classified as a strong explosion and has Kst<200 bar-m/sec.
(§2) Twenty liter sphere testing (see Proust, C.; Accorsi, A.; Dupont, L. Journal of Loss prevention in the Process Industries, vol. 20, 2007.) places the sample in the St-2 (strong explosion) class with a Kst value of 238 bar-m/s.
(§3) Therefore, twenty liter sphere testing was not required.

[2] = Dust hazard analysis: explosion severity (twenty liter sphere testing), Kst and St classification; type: physicochemical; details: for Explosion Severity (Max Pressure) / Explosion Severity (Max rate): dust explosion risk; for St Classification: general classification designation for explosible dusts
Text: as §1, §2, §3

[3] = Dust hazard analysis: charge decay time estimation; type: physicochemical
[4] = Particle size analysis using an Aerosizer instrument; type: physicochemical
Bulk and true densities = type: physicochemical
[5] = Moisture content by weight loss in vacuum oven; type: physicochemical; details: 5 gm in a vacuum oven at 60° C. for six hours
Protocol: Particle analysis. […] The sample was checked for moisture content by placing 5 gm in a vacuum oven at 60° C. for six hours and checking weight loss. The free acid lost 0.22% of its initial weight. […] The sample was checked for moisture content by placing 5 gm in a vacuum oven at 60° C. for six hours and checking weight loss. The salt monohydrate lost 0.18% of its initial weight.

HIV integrase = HIV integrase (Human immunodeficiency virus type 1 group M subtype B, UniProt P04585); details: result in words, see U.S. Pat. No. 7,176,196, sodium salt monohydrate, cited from earlier work

Row | SMILES | Minimum Ignition Energy ([1]; dust explosion risk) [mJ] | Minimum Ignition Temperature ([1]; dust explosion risk) [°C] | Susceptibility to ignition as a dust cloud [1] | Explosion Severity (Max Pressure) [2] [bar] | Explosion Severity (Max rate) [2] [bar/s] | St Classification [2] | Explosion characteristics ([2]; result in words) | Charge Decay Time Estimation [3] [min] | Particle size, 95% of sample below [4] [μm] | Particle size, mean value [4] [μm] | Bulk density (Bulk and true densities) [gm/cc] | True density (Bulk and true densities) [gm/cc] | Moisture content: loss of initial weight [5] [%] | Binding to and antagonism / inhibition of HIV integrase (HIV integrase; listed as Compound I) | Binding to and antagonism / inhibition of HIV integrase (HIV integrase) | Kst value ([2]; deflagration index of a dust) [bar · m/s] | Kst value ([2]; twenty liter sphere testing) [bar-m/s]
1 | Cc1ncnn1-c1cc(F)ccc1CNC(=O)c1nc2n(c(=O)c1[O-])CCOC2(C)C.[Na+] [Compound (I), N-[[4-fluoro-2-(5-methyl-1H-1,2,4-triazol-1-yl)phenyl]methyl]-4,6,7,9-tetrahydro-3-hydroxy-9,9-dimethyl-4-oxo-pyrimido[2,1-c][1,4]oxazine-2-carboxamide, sodium salt monohydrate] | >500 | >600 | low susceptibility to ignition as a dust cloud | 1.5 | 154 | St-1 (“St-1” is not classified as a strong explosion and has Kst<200 bar-m/sec) | weak to moderate explosion characteristics | 33 | < 33.6 | 14.8 | 0.42 | 1.53 | 0.18 | demonstrated inhibition of HIV integrase | potently bind to and act as an antagonist to HIV integrase | – | –
2 | Cc1ncnn1-c1cc(F)ccc1CNC(=O)c1nc2n(c(=O)c1O)CCOC2(C)C [Free acid] | – | – | extremely susceptible to igniting as a dust cloud; also recorded: high susceptibility to ignition and risk for explosion | 8.2 | 878 | St-2 (“St-2” is classified as a strong explosion designation and has Kst>200 bar-m/sec) | – | 330 | < 32.9 | 16.3 | 0.34 | 1.40 | 0.22 | – | – | 238 | 238
